Test results reported in ChEMBL document CHEMBL3885861, “Open TG-GATES”.

Organism: Rattus norvegicus
Experiment: Open TG-GATES - Regimen: Single
Format: toxicity, organism-based, Sprague-Dawley
Parameters: regimen Single, gender Male, age 6 weeks
Settings: in vivo, po, 0 mg/kg, route gavage, dose level Control; for APTT / Bas / Eos / Fbg / Hb / Ht / Lym / MCH / MCHC / Mono / Neu / Plat / RBC / Ret / WBC: tissue Blood; for KIDNEY_L / KIDNEY_R / KIDNEY_TOTAL: tissue Kidney; for LIVER: tissue Liver; for ALP / ALT / AST / BUN / CRE / Ca / Cl / DBIL / GLC / IP / K / LDH / Na / PL / RALB / TBIL / TC / TG / TP / gamma-GTP: tissue Plasma

O=C(CCCN1CCC(O)(c2ccc(Cl)cc2)CC1)c1ccc(F)cc1 [HALOPERIDOL]
TERMINAL_BW (3 h): 208.8 g
APTT (3 h): 16.5 s
Bas (3 h): 0%
Eos (3 h): 0%
Fbg (3 h): 202 mg/dL
Hb (3 h): 13.4 g/dL
Ht (3 h): 40.2%
Lym (3 h): 77.8%
MCH (3 h): 21.8 pg
MCHC (3 h): 33.5%
Mono (3 h): 9.2%
Neu (3 h): 13%
Plat (3 h): 94.5 x10_4/uL
RBC (3 h): 616.8 x10_4/ul
Ret (3 h): 8.7%
WBC (3 h): 114.5 x10_2/uL
KIDNEY_L (3 h): 1 g
KIDNEY_R (3 h): 1 g
KIDNEY_TOTAL (3 h): 2 g
LIVER (3 h): 10.1 g
ALP (3 h): 1053.2 IU/L
ALT (3 h): 34.4 IU/L
AST (3 h): 64.4 IU/L
BUN (3 h): 16 mg/dL
CRE (3 h): 0.5 mg/dL
Ca (3 h): 11.4 mg/dL
Cl (3 h): 105 meq/L
DBIL (3 h): 0.006 mg/dL
GLC (3 h): 185.6 mg/dL
IP (3 h): 9.4 mg/dL
K (3 h): 5.2 meq/L
LDH (3 h): 85 IU/L
Na (3 h): 139 meq/L
PL (3 h): 151.4 mg/dL
RALB (3 h): 3.7 g/dL
TBIL (3 h): 0.4 mg/dL
TC (3 h): 82.8 mg/dL
TG (3 h): 63.2 mg/dL
TP (3 h): 5.6 g/dL
gamma-GTP (3 h): 1.4 IU/L
TERMINAL_BW (6 h): 200.9 g
APTT (6 h): 16.6 s
Bas (6 h): 0%
Eos (6 h): 0.2%
Fbg (6 h): 206.4 mg/dL
Hb (6 h): 13.6 g/dL
Ht (6 h): 40.6%
Lym (6 h): 72%
MCH (6 h): 21.7 pg
MCHC (6 h): 33.4%
Mono (6 h): 5.8%
Neu (6 h): 22%
Plat (6 h): 102.2 x10_4/uL
RBC (6 h): 625.8 x10_4/ul
Ret (6 h): 8.8%
WBC (6 h): 95.9 x10_2/uL
KIDNEY_L (6 h): 0.9 g
KIDNEY_R (6 h): 1 g
KIDNEY_TOTAL (6 h): 1.9 g
LIVER (6 h): 9.3 g
ALP (6 h): 862.2 IU/L
ALT (6 h): 34.8 IU/L
AST (6 h): 62 IU/L
BUN (6 h): 11.4 mg/dL
CRE (6 h): 0.5 mg/dL
Ca (6 h): 10.7 mg/dL
Cl (6 h): 104.8 meq/L
DBIL (6 h): 0.036 mg/dL
GLC (6 h): 175.2 mg/dL
IP (6 h): 10.1 mg/dL
K (6 h): 5.1 meq/L
LDH (6 h): 92.4 IU/L
Na (6 h): 137.6 meq/L
PL (6 h): 142.8 mg/dL
RALB (6 h): 3.7 g/dL
TBIL (6 h): 0.3 mg/dL
TC (6 h): 80.2 mg/dL
TG (6 h): 47.8 mg/dL
TP (6 h): 5.6 g/dL
gamma-GTP (6 h): 1.4 IU/L
TERMINAL_BW (9 h): 199.3 g
APTT (9 h): 16.7 s
Bas (9 h): 0%
Eos (9 h): 0.8%
Fbg (9 h): 205.4 mg/dL
Hb (9 h): 13.7 g/dL
Ht (9 h): 41%
Lym (9 h): 68.6%
MCH (9 h): 22.1 pg
MCHC (9 h): 33.3%
Mono (9 h): 6.6%
Neu (9 h): 24%
Plat (9 h): 103.6 x10_4/uL
RBC (9 h): 619.2 x10_4/ul
Ret (9 h): 8.3%
WBC (9 h): 96.1 x10_2/uL
KIDNEY_L (9 h): 0.9 g
KIDNEY_R (9 h): 0.9 g
KIDNEY_TOTAL (9 h): 1.8 g
LIVER (9 h): 8.6 g
ALP (9 h): 860.2 IU/L
ALT (9 h): 32.6 IU/L
AST (9 h): 59.8 IU/L
BUN (9 h): 12.2 mg/dL
CRE (9 h): 0.5 mg/dL
Ca (9 h): 10.5 mg/dL
Cl (9 h): 106.2 meq/L
DBIL (9 h): 0.024 mg/dL
GLC (9 h): 188.4 mg/dL
IP (9 h): 10.8 mg/dL
K (9 h): 5.1 meq/L
LDH (9 h): 83.8 IU/L
Na (9 h): 138 meq/L
PL (9 h): 134.4 mg/dL
RALB (9 h): 3.8 g/dL
TBIL (9 h): 0.4 mg/dL
TC (9 h): 76.8 mg/dL
TG (9 h): 35.4 mg/dL
TP (9 h): 5.5 g/dL
gamma-GTP (9 h): 1.8 IU/L
TERMINAL_BW (24 h): 214.4 g
APTT (24 h): 16.2 s
Bas (24 h): 0%
Eos (24 h): 0.8%
Fbg (24 h): 205.8 mg/dL
Hb (24 h): 13.3 g/dL
Ht (24 h): 39.3%
Lym (24 h): 75.4%
MCH (24 h): 22 pg
MCHC (24 h): 33.9%
Mono (24 h): 6.8%
Neu (24 h): 17%
Plat (24 h): 107.6 x10_4/uL
RBC (24 h): 605.8 x10_4/ul
Ret (24 h): 8.9%
WBC (24 h): 82.8 x10_2/uL
KIDNEY_L (24 h): 0.9 g
KIDNEY_R (24 h): 1 g
KIDNEY_TOTAL (24 h): 1.9 g
LIVER (24 h): 10.6 g
ALP (24 h): 1093.2 IU/L
ALT (24 h): 43 IU/L
AST (24 h): 64.8 IU/L
BUN (24 h): 19.2 mg/dL
CRE (24 h): 0.6 mg/dL
Ca (24 h): 11 mg/dL
Cl (24 h): 104.6 meq/L
DBIL (24 h): 0.028 mg/dL
GLC (24 h): 185.4 mg/dL
IP (24 h): 8.2 mg/dL
K (24 h): 4.9 meq/L
LDH (24 h): 82.6 IU/L
Na (24 h): 138.8 meq/L
PL (24 h): 165.4 mg/dL
RALB (24 h): 3.7 g/dL
TBIL (24 h): 0.4 mg/dL
TC (24 h): 87.2 mg/dL
TG (24 h): 94.8 mg/dL
TP (24 h): 5.7 g/dL
